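The compound was tested at five concentrations on cells cultured in 96-well plates, with a 48-hour exposure period. Abbreviation: GI50, concentration required for 50% inhibition of growth. TGI is the concentration that stops growth completely.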
How the values were obtained:
Test in all cases: NCI anticancer screen, dose series, 48 h
UACC-257 melanoma = system: UACC-257 melanoma
MCF7 breast = system: MCF7 breast
TK-10 renal = system: TK-10 renal
A498 renal = system: A498 renal
HL-60(TB) leukemia = system: HL-60(TB) leukemia
OVCAR-5 ovarian = system: OVCAR-5 ovarian
NCI-H23 lung = system: NCI-H23 lung

Row | SMILES | TGI (UACC-257 melanoma) | TGI (MCF7 breast) | TGI (TK-10 renal) | TGI (A498 renal) | TGI (HL-60(TB) leukemia) | TGI (OVCAR-5 ovarian) | TGI (NCI-H23 lung) | GI50 (HL-60(TB) leukemia)
1 | CC(=O)N1CCc2c([nH]c3ccc(Br)cc23)C1c1ccccc1 (stereo unspecified) | > 10 µM | > 10 µM | > 10 µM | > 10 µM | > 10 µM | > 10 µM | – | –
2 | CCOC(=O)N1CCN(c2ccc3c(C)cc(C)nc3n2)CC1 | > 100 µM | > 100 µM | > 100 µM | > 100 µM | > 100 µM | > 100 µM | > 100 µM | –
3 | COC(=O)c1cc(NC(=O)c2cc(NC(=O)c3cc([N+](=O)[O-])cn3C)cn2C)cn1C | – | > 100 µM | 94.7 µM | > 100 µM | > 100 µM | > 100 µM | > 100 µM | –
4 | Clc1cc2c(c(CSC3=NCN(CC4CC4)CN3)c1)OCOC2 | 33.1 µM | 93.8 µM | 40.8 µM | 58.2 µM | 33.7 µM | 48.9 µM | 39.3 µM | –
5 | CN(C)c1ccc(/C=C2\N=C(NN)NC2=O)cc1 | > 100 µM | > 100 µM | > 100 µM | > 100 µM | > 100 µM | > 100 µM | > 100 µM | –
6 | COc1ccc(O[C@H](COCc2ccccc2)C[C@@H]2COC(C)(C)O2)cc1 | > 100 µM | > 100 µM | > 100 µM | > 100 µM | – | > 100 µM | > 100 µM | –
7 | Cn1c(C(C#N)c2nc(Cl)ncc2Br)nc2ccccc21 (stereo unspecified) | > 100 µM | – | > 100 µM | > 100 µM | – | > 100 µM | > 100 µM | –
8 | Cc1ccc(OCC2OC(n3cnc4nc(Cl)nc(Cl)c43)CC2Oc2ccc(C)cc2)cc1 (stereo unspecified) | 29.6 µM | 20.6 µM | 28.7 µM | 72.2 µM | 3.94 µM | 32.1 µM | 24.5 µM | –
9 | ClC(Cl)(Cl)C1=N[C@H]2[C@H](Br)[C@@H]3O[C@@H](c4ccccc4)[C@H](c4ccccc4)O[C@@H]3[C@H]2O1 | 37.3 µM | 32.6 µM | 37.5 µM | 31.3 µM | – | 37.5 µM | 42.3 µM | –
10 | CCOC(=O)c1c(Br)c(-c2ccc(Br)cc2)c(Br)n1C | 78 µM | 80.7 µM | > 100 µM | 44.2 µM | 16.6 µM | 59.7 µM | > 100 µM | 5.24 µM
11 | CC(C)CCC[C@@H](C)[C@H]1CCC2C3CC=C4C[C@@H](Oc5c6ccccc6nc6ccccc56)CCC4C3CCC21 (stereo partly specified) | > 50 µM | – | > 50 µM | – | > 50 µM | > 50 µM | > 50 µM | –
12 | O=C(Nc1nc2c(=O)[nH]cnc2s1)c1ccccc1 | > 100 µM | > 100 µM | > 100 µM | > 100 µM | > 100 µM | > 100 µM | > 100 µM | –
13 | O=C(Nc1c[nH]c(=O)[nH]c1=O)C(Cl)Cl | > 100 µM | > 100 µM | > 100 µM | > 100 µM | > 100 µM | – | > 100 µM | –
14 | COC(=O)C(CCc1ccccc1I)C1=CCC2(CC1)OCCO2 (stereo unspecified) | > 100 µM | > 100 µM | > 100 µM | > 100 µM | 17.4 µM | 95.8 µM | > 100 µM | –
15 | Cc1ccc(S(=O)(=O)/N=C(\NN)Nc2ccc(Cl)cc2)cc1 | > 100 µM | > 100 µM | > 100 µM | > 100 µM | > 100 µM | > 100 µM | > 100 µM | –
16 | COc1cccc(-c2ccc3c4c2O[C@H]2c5[nH]c6ccccc6c5C[C@@]5(O)[C@@H](C3)N(CC3CC3)CC[C@]425)c1 | 3.2 µM | 3.06 µM | 3.48 µM | 6.83 µM | – | 20.8 µM | 5.27 µM | –
17 | CCCCCCCCCCCCCCCCCCNc1ccn(C2OC(COP(=O)(O)OCC3CCC(n4cnc5c(=O)[nH]cnc54)O3)C(O)C2O)c(=O)n1 (stereo unspecified) | > 100 µM | > 100 µM | > 100 µM | > 100 µM | – | > 100 µM | > 100 µM | –
18 | CNc1ccc(-c2nc3cc(C)ccc3o2)cc1 | > 100 µM | > 100 µM | > 100 µM | 77.8 µM | > 100 µM | > 100 µM | > 100 µM | –
19 | O=C1Sc2ccc(Br)cc2C(=O)Sc2ccccc21 | 28.4 µM | 48.3 µM | 38.3 µM | 43.6 µM | 9.71 µM | 36.8 µM | 36 µM | –
20 | COC(=O)C1=C(C)NC2(O)C=CC(=O)C3C(=O)N(c4ccccc4)C(=O)C132 (stereo unspecified) | > 100 µM | > 100 µM | > 100 µM | > 100 µM | > 100 µM | > 100 µM | > 100 µM | –
21 | CN1C(=S)C(c2ccccc2)Sc2ccccc21 (stereo unspecified) | > 100 µM | > 100 µM | > 100 µM | – | > 100 µM | > 100 µM | > 100 µM | –
22 | CC(C)SC(C)(NC(=O)C1C(C)(C)CCC1(C)C)C(=O)O (stereo unspecified) | – | > 100 µM | > 100 µM | > 100 µM | > 100 µM | > 100 µM | > 100 µM | –
23 | O=C(NCCC(F)(F)C(F)(F)C(F)(F)C(F)(F)F)NC1OC(CO)C(O)C(O)C1O (stereo unspecified) | > 100 µM | > 100 µM | > 100 µM | – | > 100 µM | > 100 µM | > 100 µM | –
24 | COC(=O)/C=C(\C)C(=O)N(C)c1ccccc1I | > 100 µM | > 100 µM | – | > 100 µM | – | > 100 µM | > 100 µM | –
25 | CC(C(=O)ON1C(=O)CCC1=O)c1ccc(C(=O)c2ccccc2)s1 (stereo unspecified) | > 100 µM | > 100 µM | > 100 µM | > 100 µM | – | > 100 µM | > 100 µM | –
26 | COc1ccc(S(=O)(=O)O)cc1-n1nc(C(=O)Nc2ccccc2)n[n+]1-c1cc(S(=O)(=O)[O-])ccc1OC | – | > 100 µM | > 100 µM | > 100 µM | > 100 µM | > 100 µM | > 100 µM | –
27 | O=c1c(SSc2coc3cc(F)ccc3c2=O)coc2cc(F)ccc12 | 77 µM | 43.6 µM | 66.5 µM | – | 54.7 µM | > 100 µM | > 100 µM | –
28 | Cc1sc2nc(-c3cc([N+](=O)[O-])c(Cl)cc3Cl)c(/C=N/N=C(N)N)n2c1C | 26 µM | – | 35.7 µM | 38.6 µM | – | > 100 µM | 18.7 µM | –

— PubChem BioAssay (NCI)
